Laboratory results: the NIST ThermoML archive (doi:10.1016/j.jct.2019.02.011)

Experiment: xn = mol fraction of the nth substance listed
Conditions: Liquid, Vibrating tube method

COC(=O)OC [dimethyl carbonate] + CCCO
mass density [kg/m3]
Conditions	100 kPa	5000 kPa	10000 kPa	15000 kPa	20000 kPa	25000 kPa	30000 kPa	35000 kPa	40000 kPa
298.15 K, x1 = 0.0273	–	–	–	–	–	824.63	827.8	830.69	833.7
298.15 K, x1 = 0.0506	–	–	–	–	–	831.37	834.55	837.44	840.46
298.15 K, x1 = 0.0755	–	–	–	–	–	838.51	841.73	844.68	847.74
298.15 K, x1 = 0.1007	–	–	–	–	–	845.6	848.88	851.87	854.94
298.15 K, x1 = 0.1495	–	–	–	–	–	859.5	862.83	865.84	868.95
298.15 K, x1 = 0.2003	–	–	–	–	–	873.75	877.1	880.17	883.35
298.15 K, x1 = 0.2529	–	–	–	–	–	888.37	891.77	894.9	898.11
298.15 K, x1 = 0.2993	–	–	–	–	–	901.23	904.69	907.88	911.12
298.15 K, x1 = 0.3497	–	–	–	–	–	915.04	918.51	921.76	925.01
298.15 K, x1 = 0.401	–	–	–	–	–	928.97	932.5	935.75	939.03
298.15 K, x1 = 0.4509	–	–	–	–	–	942.42	946	949.32	952.62
298.15 K, x1 = 0.5002	–	–	–	–	–	955.58	959.23	962.55	965.93
298.15 K, x1 = 0.5498	–	–	–	–	965.01	968.71	972.41	975.8	979.21
298.15 K, x1 = 0.5996	–	–	–	–	978.09	981.85	985.57	988.96	992.41
298.15 K, x1 = 0.6499	–	–	–	–	991.19	995.01	998.78	1002.23	1005.7
298.15 K, x1 = 0.7006	–	–	–	–	1004.45	1008.28	1012.06	1015.57	1019.07
298.15 K, x1 = 0.7471	–	–	–	–	1016.43	1020.32	1024.11	1027.63	1031.19
298.15 K, x1 = 0.7989	–	–	–	–	1029.72	1033.62	1037.46	1041.04	1044.59
298.15 K, x1 = 0.8491	–	–	–	–	1042.57	1046.53	1050.43	1054.02	1057.6
298.15 K, x1 = 0.8993	–	–	–	–	1055.43	1059.4	1063.31	1066.92	1070.52
298.15 K, x1 = 0.9249	–	–	–	–	1061.94	1065.92	1069.84	1073.44	1077.05
298.15 K, x1 = 0.9489	–	–	–	–	1067.96	1071.94	1075.86	1079.52	1083.13
298.15 K, x1 = 0.9743	–	–	–	–	1074.33	1078.36	1082.29	1085.95	1089.6
298.15 K, x1 = 1	–	–	–	–	1080.9	1084.89	1088.82	1092.44	1096.04
303.15 K, x1 = 0.0273	802.96	806.96	810.58	814.19	817.69	821.09	824.3	827.45	830.37
303.15 K, x1 = 0.0506	809.34	813.38	817.06	820.71	824.27	827.72	830.93	834.14	837.11
303.15 K, x1 = 0.0755	816.25	820.3	824.02	827.68	831.25	834.74	838.05	841.27	844.3
303.15 K, x1 = 0.1007	823.16	827.26	831	834.7	838.32	841.82	845.13	848.4	851.44
303.15 K, x1 = 0.1495	836.62	840.77	844.56	848.32	851.95	855.5	858.87	862.14	865.25
303.15 K, x1 = 0.2003	850.48	854.68	858.53	862.39	866.08	869.69	873.1	876.43	879.56
303.15 K, x1 = 0.2529	864.74	869	872.91	876.81	880.56	884.23	887.7	891.09	894.28
303.15 K, x1 = 0.2993	877.26	881.57	885.49	889.45	893.25	896.97	900.44	903.84	907.1
303.15 K, x1 = 0.3497	890.62	894.99	899.01	903.02	906.89	910.67	914.19	917.64	920.92
303.15 K, x1 = 0.401	904.1	908.57	912.65	916.71	920.64	924.47	928.04	931.51	934.85
303.15 K, x1 = 0.4509	917.2	921.72	925.81	929.92	933.91	937.75	941.37	944.84	948.26
303.15 K, x1 = 0.5002	930.06	934.59	938.74	942.9	946.9	950.79	954.47	958	961.43
303.15 K, x1 = 0.5498	942.89	947.47	951.68	955.89	959.95	963.85	967.53	971.12	974.61
303.15 K, x1 = 0.5996	955.69	960.32	964.59	968.8	972.92	976.87	980.61	984.2	987.76
303.15 K, x1 = 0.6499	968.54	973.22	977.56	981.82	985.95	989.96	993.75	997.34	1000.93
303.15 K, x1 = 0.7006	981.46	986.15	990.49	994.8	998.94	1003.01	1006.8	1010.45	1014.1
303.15 K, x1 = 0.7471	993.16	997.9	1002.3	1006.66	1010.86	1014.93	1018.72	1022.39	1026.05
303.15 K, x1 = 0.7989	1006.2	1010.99	1015.45	1019.82	1024.03	1028.15	1032	1035.67	1039.35
303.15 K, x1 = 0.8491	1018.81	1023.65	1028.12	1032.54	1036.81	1040.99	1044.84	1048.52	1052.22
303.15 K, x1 = 0.8993	1031.43	1036.28	1040.81	1045.23	1049.51	1053.69	1057.6	1061.28	1065.05
303.15 K, x1 = 0.9249	1037.82	1042.67	1047.21	1051.62	1055.91	1060.1	1064.01	1067.75	1071.52
303.15 K, x1 = 0.9489	1043.76	1048.62	1053.16	1057.63	1061.92	1066.11	1070.02	1073.76	1077.54
303.15 K, x1 = 0.9743	1050.11	1054.97	1059.51	1063.98	1068.28	1072.47	1076.38	1080.13	1083.97
303.15 K, x1 = 1	1056.61	1061.47	1066.02	1070.49	1074.79	1078.99	1082.9	1086.6	1090.4
308.15 K, x1 = 0.0273	798.56	802.69	806.56	810.18	813.81	817.21	820.58	823.72	826.71
308.15 K, x1 = 0.0506	804.88	809.05	812.98	816.65	820.28	823.74	827.15	830.34	833.34
308.15 K, x1 = 0.0755	811.69	815.86	819.84	823.57	827.25	830.71	834.12	837.36	840.41
308.15 K, x1 = 0.1007	818.55	822.77	826.76	830.48	834.21	837.72	841.19	844.43	847.53
308.15 K, x1 = 0.1495	831.9	836.17	840.21	844.04	847.82	851.38	854.86	858.14	861.25
308.15 K, x1 = 0.2003	845.6	849.97	854.07	857.95	861.78	865.4	868.98	872.31	875.47
308.15 K, x1 = 0.2529	859.71	864.12	868.28	872.21	876.1	879.78	883.42	886.79	890
308.15 K, x1 = 0.2993	872.12	876.53	880.75	884.73	888.67	892.4	896.05	899.42	902.69
308.15 K, x1 = 0.3497	885.38	889.84	894.11	898.2	902.19	905.97	909.68	913.1	916.37
308.15 K, x1 = 0.401	898.75	903.3	907.64	911.77	915.81	919.66	923.42	926.84	930.17
308.15 K, x1 = 0.4509	911.74	916.34	920.73	924.87	928.97	932.87	936.64	940.1	943.48
308.15 K, x1 = 0.5002	924.45	929.1	933.55	937.74	941.84	945.79	949.62	953.13	956.52
308.15 K, x1 = 0.5498	937.17	941.82	946.33	950.57	954.72	958.68	962.57	966.12	969.52
308.15 K, x1 = 0.5996	949.8	954.5	959.02	963.36	967.52	971.54	975.48	979.03	982.49
308.15 K, x1 = 0.6499	962.55	967.29	971.88	976.22	980.43	984.5	988.45	992.05	995.51
308.15 K, x1 = 0.7006	975.36	980.15	984.79	989.19	993.45	997.53	1001.49	1005.08	1008.6
308.15 K, x1 = 0.7471	986.95	991.79	996.49	1000.94	1005.2	1009.34	1013.35	1016.99	1020.52
308.15 K, x1 = 0.7989	999.88	1004.72	1009.48	1013.98	1018.3	1022.49	1026.51	1030.15	1033.73
308.15 K, x1 = 0.8491	1012.38	1017.27	1022.04	1026.54	1030.91	1035.16	1039.19	1042.88	1046.46
308.15 K, x1 = 0.8993	1024.9	1029.78	1034.61	1039.16	1043.54	1047.79	1051.88	1055.57	1059.15
308.15 K, x1 = 0.9249	1031.23	1036.11	1040.95	1045.55	1049.98	1054.24	1058.33	1062.01	1065.61
308.15 K, x1 = 0.9489	1037.12	1042.05	1046.89	1051.5	1055.93	1060.19	1064.28	1068.02	1071.61
308.15 K, x1 = 0.9743	1043.46	1048.4	1053.24	1057.85	1062.28	1066.54	1070.69	1074.37	1078.02
308.15 K, x1 = 1	1049.91	1054.84	1059.69	1064.3	1068.73	1073	1077.1	1080.78	1084.38
